Reference: ChEMBL document CHEMBL3431459, “Roche carnitine palmitoyltransferase modulator screening data (supplementary data associated with the publication CHEMBL2216752)”
Values after ≈ are worked out from the molar mass of the structure shown.

Assays:
[1] = molecular target: T1, Carnitine O-palmitoyltransferase 1, muscle isoform (Homo sapiens, UniProt Q92523); assay: SUPPLEMENTARY: Inhibition of Carnitine palmitoyltransferase 1, muscle isoform; design: species or system Muscle tissue
T1 sequence (Q92523 whole entry): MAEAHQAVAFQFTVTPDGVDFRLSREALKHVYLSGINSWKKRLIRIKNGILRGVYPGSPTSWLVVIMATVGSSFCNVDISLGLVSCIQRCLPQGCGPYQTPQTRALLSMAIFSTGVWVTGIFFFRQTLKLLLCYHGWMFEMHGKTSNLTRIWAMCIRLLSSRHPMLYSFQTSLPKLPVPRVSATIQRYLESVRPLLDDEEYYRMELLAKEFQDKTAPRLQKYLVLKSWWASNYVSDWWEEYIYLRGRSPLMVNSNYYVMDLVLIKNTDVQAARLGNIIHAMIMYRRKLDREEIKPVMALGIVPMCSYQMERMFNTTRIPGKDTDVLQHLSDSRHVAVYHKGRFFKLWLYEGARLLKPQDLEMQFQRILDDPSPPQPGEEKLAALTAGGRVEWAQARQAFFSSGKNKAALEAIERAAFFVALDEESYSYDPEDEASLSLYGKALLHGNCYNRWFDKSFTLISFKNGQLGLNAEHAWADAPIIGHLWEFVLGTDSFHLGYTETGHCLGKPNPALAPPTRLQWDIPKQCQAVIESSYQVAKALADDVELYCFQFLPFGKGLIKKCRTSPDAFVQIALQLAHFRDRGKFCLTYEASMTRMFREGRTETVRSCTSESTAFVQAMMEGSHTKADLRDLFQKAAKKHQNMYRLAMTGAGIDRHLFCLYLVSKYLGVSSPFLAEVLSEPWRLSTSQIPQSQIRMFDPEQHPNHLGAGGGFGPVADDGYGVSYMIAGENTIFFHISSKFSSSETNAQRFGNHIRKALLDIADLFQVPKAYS

[2] = molecular target: T2, Carnitine O-palmitoyltransferase 2, mitochondrial (Homo sapiens, UniProt P23786); assay: (§1) SUPPLEMENTARY: Inhibition of Carnitine palmitoyltransferase 2
T2 sequence (P23786 whole entry): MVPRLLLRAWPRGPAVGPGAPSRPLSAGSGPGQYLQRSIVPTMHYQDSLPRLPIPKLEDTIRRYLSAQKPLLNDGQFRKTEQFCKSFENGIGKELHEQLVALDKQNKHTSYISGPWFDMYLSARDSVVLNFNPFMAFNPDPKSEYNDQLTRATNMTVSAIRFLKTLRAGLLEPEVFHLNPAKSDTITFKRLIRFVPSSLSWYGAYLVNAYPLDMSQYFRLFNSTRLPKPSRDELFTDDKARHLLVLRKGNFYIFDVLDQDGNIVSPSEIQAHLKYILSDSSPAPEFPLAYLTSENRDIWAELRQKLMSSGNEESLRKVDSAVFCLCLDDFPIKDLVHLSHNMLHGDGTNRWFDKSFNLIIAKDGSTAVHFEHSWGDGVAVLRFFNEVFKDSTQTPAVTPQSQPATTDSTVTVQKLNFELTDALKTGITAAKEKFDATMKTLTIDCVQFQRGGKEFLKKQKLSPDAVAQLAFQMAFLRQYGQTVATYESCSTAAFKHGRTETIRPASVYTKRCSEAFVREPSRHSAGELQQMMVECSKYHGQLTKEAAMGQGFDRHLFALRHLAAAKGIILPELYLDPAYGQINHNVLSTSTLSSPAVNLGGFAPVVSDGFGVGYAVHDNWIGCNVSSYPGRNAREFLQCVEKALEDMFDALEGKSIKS

[3] = molecular target: T3, Carnitine O-palmitoyltransferase 2, mitochondrial (Rattus norvegicus, UniProt P18886); assay: as §1
T3 sequence (P18886 whole entry): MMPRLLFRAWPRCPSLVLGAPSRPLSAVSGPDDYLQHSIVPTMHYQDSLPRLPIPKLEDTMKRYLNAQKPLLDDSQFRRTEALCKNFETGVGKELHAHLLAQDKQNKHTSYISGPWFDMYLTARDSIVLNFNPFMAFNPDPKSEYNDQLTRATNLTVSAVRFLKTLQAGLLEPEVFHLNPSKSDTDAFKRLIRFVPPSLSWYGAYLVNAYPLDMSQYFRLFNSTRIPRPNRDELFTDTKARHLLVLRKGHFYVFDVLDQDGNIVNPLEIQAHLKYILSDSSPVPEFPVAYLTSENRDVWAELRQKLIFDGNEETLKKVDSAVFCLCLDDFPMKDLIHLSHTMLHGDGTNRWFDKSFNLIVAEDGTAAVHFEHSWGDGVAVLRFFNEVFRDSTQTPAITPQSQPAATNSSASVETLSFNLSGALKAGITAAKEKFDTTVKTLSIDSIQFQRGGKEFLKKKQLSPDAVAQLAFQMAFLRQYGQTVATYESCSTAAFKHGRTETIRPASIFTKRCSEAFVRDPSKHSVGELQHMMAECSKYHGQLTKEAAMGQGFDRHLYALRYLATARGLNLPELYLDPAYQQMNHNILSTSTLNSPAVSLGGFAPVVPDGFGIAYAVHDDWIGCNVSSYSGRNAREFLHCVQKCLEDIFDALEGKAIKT

[4] = molecular target: T4, Carnitine O-palmitoyltransferase 1, liver isoform (Homo sapiens, UniProt P50416); assay: (§2) SUPPLEMENTARY: Inhibition of Carnitine palmitoyltransferase 1, liver isoform
T4 sequence (P50416 whole entry): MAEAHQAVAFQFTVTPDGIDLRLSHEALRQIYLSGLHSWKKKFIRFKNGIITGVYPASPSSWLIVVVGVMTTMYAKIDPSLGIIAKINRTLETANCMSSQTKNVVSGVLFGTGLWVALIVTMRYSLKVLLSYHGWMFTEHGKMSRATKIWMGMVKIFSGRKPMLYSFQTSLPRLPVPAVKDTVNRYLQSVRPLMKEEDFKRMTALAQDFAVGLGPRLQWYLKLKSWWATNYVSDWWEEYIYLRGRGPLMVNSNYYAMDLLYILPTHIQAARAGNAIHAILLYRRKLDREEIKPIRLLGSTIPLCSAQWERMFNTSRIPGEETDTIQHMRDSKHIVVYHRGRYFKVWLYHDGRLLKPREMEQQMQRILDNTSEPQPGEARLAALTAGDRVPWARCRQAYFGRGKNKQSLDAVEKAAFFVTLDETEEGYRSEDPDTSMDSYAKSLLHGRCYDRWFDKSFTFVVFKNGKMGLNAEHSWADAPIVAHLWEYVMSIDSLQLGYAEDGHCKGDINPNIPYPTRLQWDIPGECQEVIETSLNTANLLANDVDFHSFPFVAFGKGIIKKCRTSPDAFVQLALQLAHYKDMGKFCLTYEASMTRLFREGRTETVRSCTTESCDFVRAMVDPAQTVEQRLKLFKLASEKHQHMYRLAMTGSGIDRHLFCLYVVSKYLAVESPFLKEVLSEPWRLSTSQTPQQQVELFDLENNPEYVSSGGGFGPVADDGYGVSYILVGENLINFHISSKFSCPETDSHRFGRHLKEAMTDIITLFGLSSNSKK

[5] = molecular target: T5, Carnitine O-palmitoyltransferase 1, liver isoform (Rattus norvegicus, UniProt P32198); assay: as §2
T5 sequence (P32198 whole entry): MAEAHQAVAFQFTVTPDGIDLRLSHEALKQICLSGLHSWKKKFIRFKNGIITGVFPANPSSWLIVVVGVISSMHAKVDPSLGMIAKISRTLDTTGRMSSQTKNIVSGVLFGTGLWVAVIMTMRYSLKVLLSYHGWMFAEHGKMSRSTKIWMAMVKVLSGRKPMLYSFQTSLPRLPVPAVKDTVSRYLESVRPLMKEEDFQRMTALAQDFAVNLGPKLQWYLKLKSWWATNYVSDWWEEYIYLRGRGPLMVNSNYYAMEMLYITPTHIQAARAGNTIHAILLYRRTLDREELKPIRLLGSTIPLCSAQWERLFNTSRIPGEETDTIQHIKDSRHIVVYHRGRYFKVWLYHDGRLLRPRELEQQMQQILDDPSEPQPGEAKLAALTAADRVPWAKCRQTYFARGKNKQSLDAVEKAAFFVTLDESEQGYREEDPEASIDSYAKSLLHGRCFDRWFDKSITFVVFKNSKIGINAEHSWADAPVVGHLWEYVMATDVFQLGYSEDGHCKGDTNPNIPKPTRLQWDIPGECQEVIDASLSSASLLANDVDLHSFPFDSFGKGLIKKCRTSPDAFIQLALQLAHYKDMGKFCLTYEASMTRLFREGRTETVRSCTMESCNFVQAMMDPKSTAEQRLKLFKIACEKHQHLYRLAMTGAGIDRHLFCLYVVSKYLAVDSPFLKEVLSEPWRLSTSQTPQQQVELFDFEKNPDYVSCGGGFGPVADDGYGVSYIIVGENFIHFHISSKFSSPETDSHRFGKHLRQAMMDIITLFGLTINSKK

[6] = SUPPLEMENTARY: Lyophilisation Solubility Assay (LYSA); assay type: physicochemical; details: read-out: Kinetic_solubility
[7] = SUPPLEMENTARY: Lipophilicity (log D) Determination by high-throughput shake-flask; assay type: physicochemical; details: octanol/water
[8] = SUPPLEMENTARY: PAMPA permeability assay; assay type: physicochemical; details: read-out: Permeability

SMILES: Cc1cc(-c2nc([C@H]3CCCCN3C(=O)COc3ccccc3)no2)no1
- IC50 [1]: > 100000 nM
- IC50 [2]: > 100000 nM
- IC50 [3]: > 100000 nM
- IC50 [4]: 166 nM
- IC50 [5]: 448 nM
- solubility kinetic [6]: 39 µg/mL (≈ 106 µM)
- logD [7]: 2.62
- Papp [8]: 6.78 ×10⁻⁶ cm/s

SMILES: Cc1cc(-c2nc([C@H]3CCCCN3C(=O)COc3ccccc3)no2)n(C)n1
- IC50 [1]: > 100000 nM
- IC50 [2]: 16300 nM
- IC50 [3]: > 100000 nM
- IC50 [4]: 228 nM
- IC50 [5]: 330 nM
- solubility kinetic [6]: 55 µg/mL (≈ 144 µM)
- logD [7]: 3.13
- Papp [8]: 6.42 ×10⁻⁶ cm/s

SMILES: Cc1cc(-c2nc([C@H]3CCCCN3C(=O)COc3ccccc3)no2)[nH]n1
- IC50 [1]: 62700 nM
- IC50 [2]: > 100000 nM
- IC50 [3]: > 100000 nM
- IC50 [4]: 188 nM
- IC50 [5]: 146 nM
- solubility kinetic [6]: 52 µg/mL (≈ 142 µM)
- logD [7]: 2.57
- Papp [8]: 6.09 ×10⁻⁶ cm/s

SMILES: Cc1cc(-c2nc([C@H]3CCCCN3C(=O)COc3ccccc3)no2)on1
- IC50 [1]: > 100000 nM
- IC50 [2]: > 100000 nM
- IC50 [3]: > 100000 nM
- IC50 [4]: 116 nM
- IC50 [5]: 144 nM
- solubility kinetic [6]: 41 µg/mL (≈ 111 µM)
- logD [7]: 2.6
- Papp [8]: 9.63 ×10⁻⁶ cm/s

SMILES: O=C(COc1ccccc1)N1CCCC[C@@H]1c1noc(-c2cc([N+](=O)[O-])[nH]n2)n1
- IC50 [1]: > 100000 nM
- IC50 [2]: > 100000 nM
- IC50 [3]: > 100000 nM
- IC50 [4]: 140 nM
- IC50 [5]: 388 nM
- solubility kinetic [6]: 68 µg/mL (≈ 171 µM)
- logD [7]: 1.07
- Papp [8]: 6.99 ×10⁻⁶ cm/s

SMILES: O=C1Nc2ccc(-c3noc([C@H]4CCCCN4C(=O)COc4ccccc4)n3)cc2CO1
- IC50 [1]: > 100000 nM
- IC50 [2]: 4740 nM
- IC50 [3]: > 100000 nM
- IC50 [4]: 98.2 nM
- IC50 [5]: 154 nM
- solubility kinetic [6]: 8 µg/mL (≈ 18.4 µM)
- logD [7]: 2.89
- Papp [8]: 3.59 ×10⁻⁶ cm/s

SMILES: Cc1cc(C)cc(S(=O)(=O)N2CCc3ccc(C(=O)Nc4nc(CC(=O)O)cs4)cc32)c1
- IC50 [1]: 531 nM
- IC50 [2]: > 100000 nM
- IC50 [3]: > 100000 nM
- IC50 [4]: 16.7 nM
- IC50 [5]: 32 nM
- solubility kinetic [6]: 5 µg/mL (≈ 10.6 µM)
- logD [7]: 2.37
- Papp [8]: 2.22 ×10⁻⁶ cm/s

SMILES: O=C(O)Cc1csc(NC(=O)c2ccc3c(c2)N(S(=O)(=O)c2cccc(Cl)c2)CC3)n1
- IC50 [1]: 601 nM
- IC50 [2]: > 100000 nM
- IC50 [3]: > 100000 nM
- IC50 [4]: 40.7 nM
- IC50 [5]: 25.8 nM
- solubility kinetic [6]: 260 µg/mL (≈ 544 µM)
- logD [7]: 0.34
- Papp [8]: 2.91 ×10⁻⁶ cm/s

SMILES: COc1ccc(Cl)cc1S(=O)(=O)N1CCOc2ccc(C(=O)Nc3ncc(CC(=O)O)s3)cc21
- IC50 [1]: 1430 nM
- IC50 [2]: > 100000 nM
- IC50 [3]: > 100000 nM
- IC50 [4]: 41.6 nM
- IC50 [5]: 38.6 nM
- solubility kinetic [6]: 31 µg/mL (≈ 59.2 µM)
- logD [7]: 0.05
- Papp [8]: 2.18 ×10⁻⁶ cm/s

SMILES: O=C(O)c1ccc(NC(=O)c2ccc3c(c2)N(Cc2cccc(Cl)c2)C(=O)CS3(=O)=O)cc1
- IC50 [1]: 5170 nM
- IC50 [2]: 68500 nM
- IC50 [3]: > 100000 nM
- IC50 [4]: 229 nM
- IC50 [5]: 184 nM
- solubility kinetic [6]: 26 µg/mL (≈ 53.6 µM)
- logD [7]: 0.47
- Papp [8]: 1.05 ×10⁻⁶ cm/s

SMILES: O=C1NCc2ccc(-c3n[nH]c([C@H]4CCCCN4C(=O)COc4ccccc4)n3)cc2N1
- IC50 [1]: > 100000 nM
- IC50 [2]: 40200 nM
- IC50 [3]: 44100 nM
- IC50 [4]: 192 nM
- IC50 [5]: 546 nM
- solubility kinetic [6]: 77 µg/mL (≈ 178 µM)
- logD [7]: 2.18
- Papp [8]: 2.18 ×10⁻⁶ cm/s
